Data reported in the NIST ThermoML archive (doi:10.1016/j.jct.2007.11.011).

Assay: xn = mol fraction of the nth substance listed
Details: Liquid

CCOS(=O)(=O)[O-].CCn1cc[n+](C)c1 [1-ethyl-3-methylimidazolium ethyl sulfate] + CO
mass density [kg/m3]
Details	100 kPa	2500 kPa	5000 kPa	10000 kPa	15000 kPa	20000 kPa	25000 kPa	30000 kPa	35000 kPa
283.15 K, x1 = 0.04781	895.14	896.98	898.83	902.39	905.85	909.18	912.41	915.51	918.59
283.15 K, x1 = 0.1026	968.87	970.47	972.09	975.24	978.32	981.31	984.2	987.02	989.77
283.15 K, x1 = 0.1977	1052.5	1053.84	1055.23	1057.94	1060.59	1063.21	1065.75	1068.22	1070.64
283.15 K, x1 = 0.2432	1081.02	1082.31	1083.64	1086.24	1088.8	1091.31	1093.76	1096.15	1098.5
283.15 K, x1 = 0.3026	1111.91	1113.14	1114.41	1116.86	1119.26	1121.66	1123.99	1126.28	1128.48
283.15 K, x1 = 0.3887	1145.18	1146.33	1147.51	1149.84	1152.14	1154.4	1156.62	1158.82	1160.95
283.15 K, x1 = 0.485	1173.12	1174.24	1175.35	1177.57	1179.75	1181.92	1184.04	1186.14	1188.17
283.15 K, x1 = 0.589	1195.65	1196.74	1197.79	1199.93	1202.04	1204.13	1206.18	1208.21	1210.17
283.15 K, x1 = 0.7289	1218.63	1219.71	1220.74	1222.79	1224.82	1226.84	1228.82	1230.77	1232.67
283.15 K, x1 = 0.8521	1233.5	1234.47	1235.48	1237.48	1239.47	1241.45	1243.37	1245.28	1247.16
283.15 K, x1 = 0.9397	1242.49	1243.52	1244.49	1246.47	1248.43	1250.39	1252.3	1254.18	1256.03
293.15 K, x1 = 0.04781	886.34	888.27	890.2	893.93	897.52	900.98	904.34	907.55	910.71
293.15 K, x1 = 0.1026	960.49	962.13	963.82	967.09	970.28	973.36	976.36	979.27	982.13
293.15 K, x1 = 0.1977	1044.52	1045.92	1047.38	1050.18	1052.91	1055.6	1058.22	1060.75	1063.26
293.15 K, x1 = 0.2432	1073.23	1074.55	1075.93	1078.61	1081.24	1083.82	1086.34	1088.79	1091.21
293.15 K, x1 = 0.3026	1104.25	1105.51	1106.81	1109.35	1111.82	1114.27	1116.67	1119.01	1121.32
293.15 K, x1 = 0.3887	1137.8	1138.99	1140.22	1142.61	1144.95	1147.27	1149.55	1151.75	1153.96
293.15 K, x1 = 0.485	1165.78	1166.91	1168.06	1170.35	1172.59	1174.79	1176.97	1179.09	1181.21
293.15 K, x1 = 0.589	1188.53	1189.55	1190.65	1192.84	1194.99	1197.11	1199.2	1201.26	1203.3
293.15 K, x1 = 0.7289	1211.6	1212.63	1213.69	1215.79	1217.88	1219.92	1221.94	1223.92	1225.88
293.15 K, x1 = 0.8521	1226.42	1227.39	1228.45	1230.49	1232.52	1234.53	1236.51	1238.43	1240.37
293.15 K, x1 = 0.9397	1235.42	1236.43	1237.46	1239.51	1241.5	1243.48	1245.42	1247.34	1249.28
298.15 K, x1 = 0.04781	881.9	883.82	885.81	889.63	893.33	896.87	900.3	903.63	906.81
298.15 K, x1 = 0.1026	956.23	957.85	959.6	962.97	966.22	969.37	972.43	975.41	978.3
298.15 K, x1 = 0.1977	1040.54	1041.91	1043.39	1046.26	1049.05	1051.78	1054.44	1057.05	1059.58
298.15 K, x1 = 0.2432	1069.25	1070.58	1071.99	1074.73	1077.43	1080.03	1082.59	1085.11	1087.54
298.15 K, x1 = 0.3026	1100.31	1101.59	1102.92	1105.51	1108.07	1110.55	1112.96	1115.37	1117.69
298.15 K, x1 = 0.3887	1134.01	1135.21	1136.46	1138.92	1141.32	1143.68	1145.98	1148.26	1150.46
298.15 K, x1 = 0.485	1162.03	1163.15	1164.36	1166.69	1168.99	1171.24	1173.44	1175.62	1177.74
298.15 K, x1 = 0.589	1184.83	1185.86	1187.01	1189.25	1191.45	1193.61	1195.76	1197.87	1199.91
298.15 K, x1 = 0.7289	1207.95	1208.92	1210.02	1212.17	1214.29	1216.37	1218.42	1220.46	1222.43
298.15 K, x1 = 0.8521	1222.76	1223.17	1224.62	1226.79	1228.88	1230.93	1232.93	1234.93	1236.86
298.15 K, x1 = 0.9397	1231.87	1232.94	1234.01	1236.07	1238.12	1240.12	1242.11	1244.08	1245.99
303.15 K, x1 = 0.04781	877.37	879.39	881.43	885.44	890.01	–	–	–	–
303.15 K, x1 = 0.1026	951.86	953.61	955.38	958.89	962.19	–	–	–	–
303.15 K, x1 = 0.1977	1036.37	1037.84	1039.36	1042.38	1045.21	–	–	–	–
303.15 K, x1 = 0.2432	1065.2	1066.61	1068.04	1070.92	1073.64	–	–	–	–
303.15 K, x1 = 0.3026	1096.34	1097.65	1099	1101.75	1104.31	–	–	–	–
303.15 K, x1 = 0.3887	1130.14	1131.4	1132.67	1135.24	–	–	–	–	–
303.15 K, x1 = 0.485	1158.24	1159.4	1160.61	1163.06	–	–	–	–	–
303.15 K, x1 = 0.589	1181.07	1182.15	1183.33	1185.69	–	–	–	–	–
303.15 K, x1 = 0.7289	1204.24	1205.29	1206.4	1208.67	–	–	–	–	–
303.15 K, x1 = 0.8521	1219.11	1220.12	1221.21	1223.41	–	–	–	–	–
303.15 K, x1 = 0.9397	1228.28	1229.37	1230.44	1232.62	–	–	–	–	–
